Measurements as given in patent US20230233569A1 (Revolution Medicines, Inc., priority 2020, published 2023).
Like-named read-outs stand apart in the source and are kept apart here.

Tests used:
KRAS G13D = KRAS G13D (Homo sapiens, UniProt P01116+P62937, G13D); test: Disruption of BRAF RBD interaction with Ras (FRET / MOA assay, with Cyclophilin A); format: biochemical
Procedure, shortened: (§1)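 Biochemical TR-FRET disruption assay: nucleotide-loaded K-Ras with Cyclophilin A and a BRAF RBD construct, compound titrated over 10 points from 30 μM (final).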

NRAS G12C = NRAS G12C (Homo sapiens, UniProt P01111+P62937, G12C); test: as above; format: biochemical
KRAS WT = KRAS WT (Homo sapiens, UniProt P01116+P62937); test: as above; format: biochemical
Procedure, shortened: as §1

KRAS G12D = KRAS G12D (Homo sapiens, UniProt P01116+P62937, G12D); test: as above; format: biochemical
Procedure, shortened: as §1

KRAS G13C = KRAS G13C (Homo sapiens, UniProt P01116+P62937, G13C); test: as above; format: biochemical
Procedure, shortened: as §1

KRAS G12V = KRAS G12V (Homo sapiens, UniProt P01116+P62937, G12V); test: as above; format: biochemical
Procedure, shortened: as §1

KRAS G12S = KRAS G12S (Homo sapiens, UniProt P01116+P62937, G12S); test: as above; format: biochemical
Procedure, shortened: as §1

KRAS G12C = KRAS G12C (Homo sapiens, UniProt P01116+P62937, G12C); test: as above; format: biochemical
Procedure, shortened: as §1

NCI-H358 (K-Ras G12C) = test: CellTiter-Glo cell viability assay, 5-day treatment; format: cell-based; details: Homo sapiens, NCI-H358, 120 h, 5-day treatment; read-out: H358 Cell Viability assay data (K-Ras G12C, IC50)
Procedure, shortened: (§2)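 Five-day compound treatment of plated cells; luminescent read after ~30 min at RT. Percent-of-DMSO data fit to a four-parameter logistic model.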

KRAS Q61H = KRAS Q61H (Homo sapiens, UniProt P01116+P62937, Q61H); test: Disruption of BRAF RBD interaction with Ras (FRET / MOA assay, with Cyclophilin A); format: biochemical; details: KRAS Q61H; read-out: KRAS Q61H FRET data IC50
Procedure, shortened: (§3)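 TR-FRET in 25 mM HEPES pH 7.3, 100 mM NaCl, 5 mM MgCl2, 0.1% BSA: 25 μM Cyclophilin A, 12.5 nM His6-Ras-GMPPNP, 50 nM GST-BRAF RBD with compound (10-point 3-fold series from 30 μM), 3 h at 25° C. Anti-His Eu/anti-GST APC added, 1.5 h more; IC50 from decreased FRET ratio versus DMSO.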

NRAS WT = NRAS WT (Homo sapiens, UniProt P01111+P62937); test: as above; format: biochemical; details: NRAS WT; read-out: NRAS WT FRET data IC50
Procedure, shortened: as §3

NRAS Q61K = NRAS Q61K (Homo sapiens, UniProt P01111+P62937, Q61K); test: as above; format: biochemical; details: NRAS Q61K; read-out: NRAS Q61K FRET data IC50
Procedure, shortened: as §3

NRAS Q61R = NRAS Q61R (Homo sapiens, UniProt P01111+P62937, Q61R); test: as above; format: biochemical; details: NRAS Q61R; read-out: NRAS Q61R FRET data IC50
Procedure, shortened: as §3

Capan-1 (K-Ras G12V) = test: CellTiter-Glo cell viability assay, 5-day treatment; format: cell-based; details: Homo sapiens, CAPAN-1, 120 h, 5-day treatment; read-out: Capan-1 Cell Viability assay data (K-Ras G12V, IC50)
Procedure, shortened: as §2

[1] = KRAS G13D FRET data IC50, KRAS G13D
[2] = NRAS G12C FRET data IC50, NRAS G12C
[3] = KRAS WT FRET data IC50, KRAS WT
[4] = KRAS G12V FRET data IC50, KRAS G12V
[5] = KRAS G13D, read-out: KRAS G13D FRET data IC50
[6] = NRAS G12C, read-out: NRAS G12C FRET data IC50
[7] = KRAS WT, read-out: KRAS WT FRET data IC50
[8] = read-out: KRAS G12D FRET data, IC50
[9] = read-out: KRAS G13C FRET data, IC50
[10] = KRAS G12V, read-out: KRAS G12V FRET data IC50
[11] = read-out: KRAS G12S FRET data, IC50
[12] = read-out: KRAS G12C FRET data, IC50

Sequence of KRAS G12S (P01116 1-169 isoform P01116-2 G12S limits assumed): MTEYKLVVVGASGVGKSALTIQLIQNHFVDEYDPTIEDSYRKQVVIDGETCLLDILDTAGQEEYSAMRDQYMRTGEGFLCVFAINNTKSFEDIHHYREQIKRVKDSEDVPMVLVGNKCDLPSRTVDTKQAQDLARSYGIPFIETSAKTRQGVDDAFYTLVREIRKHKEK
Sequence of KRAS G12S (P62937 whole entry): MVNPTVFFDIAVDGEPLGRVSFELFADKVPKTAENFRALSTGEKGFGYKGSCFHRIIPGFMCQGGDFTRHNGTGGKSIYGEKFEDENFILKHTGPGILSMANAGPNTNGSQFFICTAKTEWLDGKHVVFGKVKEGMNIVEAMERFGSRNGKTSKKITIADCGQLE
Sequence of KRAS G13D (P01116 1-169 isoform P01116-2 G13D limits assumed): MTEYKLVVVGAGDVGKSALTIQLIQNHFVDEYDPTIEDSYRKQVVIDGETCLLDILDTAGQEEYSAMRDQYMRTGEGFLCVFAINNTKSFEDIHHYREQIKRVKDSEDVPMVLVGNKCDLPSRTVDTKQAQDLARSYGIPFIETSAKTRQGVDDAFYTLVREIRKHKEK
Sequence of KRAS G13D (P62937 whole entry): as the sequence (P62937 whole entry) above
Sequence of NRAS Q61K (P01111 whole entry Q61K): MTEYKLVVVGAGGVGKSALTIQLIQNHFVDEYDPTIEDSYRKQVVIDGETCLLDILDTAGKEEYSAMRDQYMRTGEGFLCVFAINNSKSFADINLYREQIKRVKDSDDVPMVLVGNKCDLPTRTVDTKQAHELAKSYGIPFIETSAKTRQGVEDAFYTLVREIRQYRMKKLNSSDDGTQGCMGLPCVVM
Sequence of NRAS Q61K (P62937 whole entry): as the sequence (P62937 whole entry) above
Sequence of NRAS WT (P01111 whole entry): as the sequence (P01111 whole entry Q61K) above, with K61Q counted along it
Sequence of NRAS WT (P62937 whole entry): as the sequence (P62937 whole entry) above
Sequence of KRAS G12C (P01116 1-169 isoform P01116-2 G12C): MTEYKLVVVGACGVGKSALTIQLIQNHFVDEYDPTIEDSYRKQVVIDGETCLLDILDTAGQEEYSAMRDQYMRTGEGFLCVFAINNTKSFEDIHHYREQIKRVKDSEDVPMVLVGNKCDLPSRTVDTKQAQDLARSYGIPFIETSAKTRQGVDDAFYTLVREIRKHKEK
Sequence of KRAS G12C (P62937 whole entry): as the sequence (P62937 whole entry) above
Sequence of NRAS Q61R (P01111 whole entry Q61R): as the sequence (P01111 whole entry Q61K) above, with K61R counted along it
Sequence of NRAS Q61R (P62937 whole entry): as the sequence (P62937 whole entry) above
Sequence of KRAS G12D (P01116 1-169 isoform P01116-2 G12D limits assumed): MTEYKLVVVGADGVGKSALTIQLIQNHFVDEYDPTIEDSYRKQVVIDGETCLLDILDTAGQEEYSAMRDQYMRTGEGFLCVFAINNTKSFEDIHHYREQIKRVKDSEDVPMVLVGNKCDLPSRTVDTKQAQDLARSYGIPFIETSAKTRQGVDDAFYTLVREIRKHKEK
Sequence of KRAS G12D (P62937 whole entry): as the sequence (P62937 whole entry) above
Sequence of KRAS G13C (P01116 1-169 isoform P01116-2 G13C): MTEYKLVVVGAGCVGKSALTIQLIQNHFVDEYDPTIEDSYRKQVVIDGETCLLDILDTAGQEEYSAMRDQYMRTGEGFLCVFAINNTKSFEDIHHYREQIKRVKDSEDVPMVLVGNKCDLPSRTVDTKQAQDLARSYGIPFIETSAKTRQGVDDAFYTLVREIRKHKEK
Sequence of KRAS G13C (P62937 whole entry): as the sequence (P62937 whole entry) above
Sequence of KRAS WT (P01116 1-169 isoform P01116-2 limits assumed): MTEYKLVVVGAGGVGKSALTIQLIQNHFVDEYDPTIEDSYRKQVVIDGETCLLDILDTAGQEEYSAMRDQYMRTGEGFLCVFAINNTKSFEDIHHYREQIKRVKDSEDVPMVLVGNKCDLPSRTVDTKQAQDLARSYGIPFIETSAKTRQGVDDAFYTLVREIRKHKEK
Sequence of KRAS WT (P62937 whole entry): as the sequence (P62937 whole entry) above
Sequence of NRAS G12C (P01111 whole entry G12C): as the sequence (P01111 whole entry Q61K) above, with G12C, K61Q counted along it
Sequence of NRAS G12C (P62937 whole entry): as the sequence (P62937 whole entry) above
Sequence of KRAS Q61H (P01116 1-169 isoform P01116-2 Q61H limits assumed): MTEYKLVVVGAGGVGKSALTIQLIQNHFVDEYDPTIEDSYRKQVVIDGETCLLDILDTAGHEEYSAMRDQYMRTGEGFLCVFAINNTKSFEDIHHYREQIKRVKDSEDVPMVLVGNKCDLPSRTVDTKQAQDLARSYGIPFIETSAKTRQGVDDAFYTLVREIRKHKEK
Sequence of KRAS Q61H (P62937 whole entry): as the sequence (P62937 whole entry) above
Sequence of KRAS G12V (P01116 1-169 isoform P01116-2 G12V limits assumed): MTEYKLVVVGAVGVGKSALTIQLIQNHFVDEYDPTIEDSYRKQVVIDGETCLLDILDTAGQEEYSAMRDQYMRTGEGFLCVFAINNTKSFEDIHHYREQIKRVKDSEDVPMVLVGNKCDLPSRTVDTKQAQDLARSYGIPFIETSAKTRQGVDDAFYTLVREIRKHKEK
Sequence of KRAS G12V (P62937 whole entry): as the sequence (P62937 whole entry) above

SMILES	IC50 (KRAS G13D; [1]) [nM]	IC50 (NRAS G12C; [2]) [nM]	IC50 (KRAS WT; [3]) [nM]	IC50 (KRAS G12D; KRAS G12D FRET data, IC50) [nM]	IC50 (KRAS G13C; KRAS G13C FRET data, IC50) [nM]	IC50 (KRAS G12V; [4]) [nM]	IC50 (KRAS G12S; KRAS G12S FRET data, IC50) [nM]	IC50 (NCI-H358 (K-Ras G12C)) [nM]	IC50 (KRAS Q61H) [nM]	IC50 (NRAS WT) [nM]	IC50 (NRAS Q61K) [nM]	IC50 (NRAS Q61R) [nM]	IC50 (KRAS G13D; [5]) [nM]	IC50 (NRAS G12C; [6]) [nM]	IC50 (KRAS WT; [7]) [nM]	IC50 (KRAS G12D; [8]) [nM]	IC50 (KRAS G13C; [9]) [nM]	IC50 (KRAS G12V; [10]) [nM]	IC50 (KRAS G12S; [11]) [nM]	IC50 (KRAS G12C; [12]) [nM]	also measured
CCn1c(-c2cccnc2[C@H](C)OC)c2c3cc(ccc31)-c1csc(n1)C[C@H](NC(=O)[C@H](C(C)C)N(C)C(=O)N1C[C@@H]3CN(C)C[C@@H]31)C(=O)N1CCC[C@H](N1)C(=O)OCC(C)(C)C2 (atropisomer, axis not shown) [Example A446]	–	–	–	–	–	–	–	–	1000 to 10000	1000 to 10000	1000 to 10000	> 10000	1000 to 10000	1000 to 10000	1000 to 10000	> 10000	1000 to 10000	> 10000	1000 to 10000	1000 to 10000	IC50 (Capan-1 (K-Ras G12V)): > 10000 nM
CCn1c(-c2cccnc2[C@H](C)OC)c2c3cc(ccc31)-c1csc(n1)C[C@H](NC(=O)[C@H](C(C)C)N1CCC3(CCN(S(C)(=O)=O)C3)C1=O)C(=O)N1CCC[C@H](N1)C(=O)OCC(C)(C)C2 (mixture of isomers) [Example A220]	–	–	–	–	–	–	–	–	1000 to 10000	1000 to 10000	1000 to 10000	1000 to 10000	–	–	–	–	–	–	–	–	IC50 (Capan-1 (K-Ras G12V)): 1000 to 10000 nM
CCn1c(-c2cc(N3CCN(C)CC3)cnc2[C@H](C)OC)c2c3cc(ccc31)-c1csc(n1)C[C@H](NC(C)=O)C(=O)N1CCC[C@H](N1)C(=O)OCC(C)(C)C2 [Example A321]	–	–	–	–	–	–	–	100 to 1000	100 to 1000	100 to 1000	100 to 1000	100 to 1000	100 to 1000	10 to 100	100 to 1000	100 to 1000	100 to 1000	100 to 1000	100 to 1000	10 to 100	–

More lines, main results first:

IC50 (KRAS G13D; [1]) [nM]	IC50 (NRAS G12C; [2]) [nM]	IC50 (KRAS WT; [3]) [nM]	IC50 (KRAS G12D; KRAS G12D FRET data, IC50) [nM]	IC50 (KRAS G13C; KRAS G13C FRET data, IC50) [nM]	IC50 (KRAS G12V; [4]) [nM]	IC50 (KRAS G12S; KRAS G12S FRET data, IC50) [nM]	IC50 (NCI-H358 (K-Ras G12C)) [nM]	SMILES	IC50 (KRAS Q61H) [nM]	IC50 (NRAS WT) [nM]	IC50 (NRAS Q61K) [nM]	IC50 (NRAS Q61R) [nM]	IC50 (KRAS G13D; [5]) [nM]	IC50 (NRAS G12C; [6]) [nM]	IC50 (KRAS WT; [7]) [nM]	IC50 (KRAS G12D; [8]) [nM]	IC50 (KRAS G13C; [9]) [nM]	IC50 (KRAS G12V; [10]) [nM]	IC50 (KRAS G12S; [11]) [nM]	IC50 (KRAS G12C; [12]) [nM]	also measured
1000 to 10000	1000 to 10000	1000 to 10000	> 10000	1000 to 10000	1000 to 10000	1000 to 10000	1000 to 10000	CCn1c(-c2cnccc2COC)c2c3cc(ccc31)-c1cc(O)cc(c1)C[C@H](NC(=O)[C@H](C(C)C)N(C)S(C)(=O)=O)C(=O)N1CCC[C@H](N1)C(=O)OCC(C)(C)C2 [Example A57, (2S)—N-[(8S,14S)-22-ethyl-4-hydroxy-21-[4-(methoxymethyl)pyridin-3-yl]-18,18-dimethyl-9,15-dioxo-16-oxa-10,22,28-triazapentacyclo[18.5.2.1^2,6.1^10,14.0^23,27]nonacosa-1(26),2,4,6(29),20,23(27),24-heptaen-8-yl]-3-methyl-2-(N-methylmethanesulfonamido)butanamide]	100 to 1000	1000 to 10000	1000 to 10000	1000 to 10000	–	–	–	–	–	–	–	–	IC50 (KRAS G12C; KRAS G12C FRET data, IC50): 1000 to 10000 nM
–	–	–	–	–	–	–	1000 to 10000	CCn1c(-c2cnccc2COC)c2c3cc(ccc31)-c1cc(O)cc(c1)C[C@H](NC(=O)[C@H](C(C)C)N(C)C(=O)c1ncco1)C(=O)N1CCC[C@H](N1)C(=O)OCC(C)(C)C2 [Example A38]	10 to 100	100 to 1000	100 to 1000	100 to 1000	100 to 1000	100 to 1000	100 to 1000	1000 to 10000	1000 to 10000	100 to 1000	100 to 1000	100 to 1000	–
1000 to 10000	100 to 1000	100 to 1000	> 10000	100 to 1000	100 to 1000	100 to 1000	1000 to 10000	CCn1c(-c2cnccc2COC)c2c3cc(ccc31)-c1cc(O)cc(c1)C[C@H](NC(=O)[C@H](C(C)C)N(C)C(=O)[C@H]1CCN(S(=O)(=O)N3CC(O)C3)C1)C(=O)N1CCC[C@H](N1)C(=O)OCC(C)(C)C2 [Example A37, (2S)—N-[(8S,14S)-22-ethyl-4-hydroxy-21-[4-(methoxymethyl)pyridin-3-yl]-18,18-dimethyl-9,15-dioxo-16-oxa-10,22,28-triazapentacyclo[18.5.2.1^2,6.1^10,14.0^23,27]nonacosa-1(26),2,4,6(29),20,23(27),24-heptaen-8-yl]-2-{1-[(3S)-1-[(3-hydroxyazetidin-1-yl)sulfonyl]pyrrolidin-3-yl]-N-methylformamido}-3-methylbutanamide]	10 to 100	100 to 1000	1000 to 10000	1000 to 10000	–	–	–	–	–	–	–	–	IC50 (KRAS G12C; KRAS G12C FRET data, IC50): 100 to 1000 nM
